Source: publication PMC8397403, “Physiologically Based Pharmacokinetic Modeling of Transporter-Mediated Hepatic Disposition of Imaging Biomarker Gadoxetate in Rats” (Molecular Pharmaceutics, 2021)
Where “and” joins values, the source holds several entries; their conditions need not be identical. Identical values can stand only once. Like-named read-outs stand apart in the source and are kept apart here. Marks after values point to notes of the source that are not given here.

Legend:
[1] = renal clearance calculated as CLtotal × fe, rat weight 0.25 kg; fixed literature value; cited from earlier work
[2] = set-up: method as in PMID 32851735; settings: cited from earlier work; for Ex vivo relaxivity r1, blood: spleen assumed equal to blood
[3] = Bottom-up IVIVE of gadoxetate transporter kinetic data / PBPK model; set-up: species or system rat
Description: IVIVE of gadoxetate CLactive,u and CLpassive,u was performed by scaling these parameters to in vivo values (CLactive,u,in vivo and CLpassive,u,in vivo; mL/min/kg body weight) using a hepatocellularity of 120 × 10^6 cells/g liver,[34] and a liver weight (wliver) of 40 g/kg body weight,[38] as in eq 3. [drawing 3] 3
(§1) A reduced PBPK model was developed to describe the PK of gadoxetate in rats; a permeability-limited liver model was implemented capturing relevant processes, as done previously.[6],[41] The compartments represent the blood, spleen, splanchnic organs, liver interstitial space, hepatocytes, and the rest of the body (ROB) vascular and extravascular spaces. The ROB compartment includes muscles, skin, bones, and fat among others. Details of model equations and physiological parameters values are reported in the Supporting Information, Sections 2, 3, and 5.
(§2) Standard kinetic models used for MRI contrast agents generally describe the organs by using three compartments: plasma, interstitial, and intracellular spaces.[12],[42],[43] Gadoxetate distributes only in the extracellular space of all the organs; liver is the exception, where gadoxetate undergoes active uptake into the hepatocytes.[44] Therefore, in the gadoxetate PBPK model, the volume of all the compartments, except the blood and the liver, corresponded to the organ extracellular space, that in turn was considered to be composed of the blood within the organ and the interstitial space. For highly vascularized and perfused organs with fenestrated capillaries (e.g., liver), the exchange between the plasma and the interstitial space is generally considered to be fast.[12],[19] Therefore, for liver, spleen, and splanchnic compartments, the extracellular volumes were considered to be the sum of the blood within the organ and the interstitial space volumes. […] A permeability limitation between the vascular and interstitial space was, therefore, assumed for the ROB compartment, as shown in eq 5. [drawing 5] 5 cb, crob,v and crob,ev [μmol/L] are the gadoxetate concentration in blood and ROB vascular and extravascular compartments; Vrob,v and Vrob,ev [L] are the ROB vascular and extravascular compartment volumes, respectively; and PS [L/h] is the permeability surface product.
To describe the gadoxetate-active uptake into the hepatocytes, a permeability-limited liver model was used, as shown in eq 6. [drawing 6] 6 inputsplan [μmol/h] represent the venous input from the splanchnic organs, while inputart [μmol/h] is the input from the hepatic artery; cliv,extr and cliv,cell [μmol/L] are the drug concentrations in the extracellular liver (tissue blood plus interstitial space) and in the hepatocytes, respectively; Vliv,extr and Vliv,int [L] are the extracellular and hepatocytes liver volumes; Qh [L/h] is the liver blood flow; Kliv,extr-b is the extracellular liver to blood partition coefficient; CLactive and CLpassive [L/h] are the active and passive clearances across the hepatocytes cell membrane; CLbiliary [L/h] is the clearance representing the excretion from the hepatocytes into the bile; and fu,liv,cell is the gadoxetate fraction unbound in the hepatocytes (obtained from the in vitro generated data fu,cell). Recent PBPK studies of hepatic transporter substrates have used a 5-compartment liver model[45] and the use of this particular liver model was also explored in the current PBPK modeling.
All the parameters were initially obtained using literature values and in vitro experiments. Prospective transporter clearance IVIVE was performed with the aim of predicting the gadoxetate ΔR1 in blood, spleen, and liver after administration of gadoxetate alone (in the absence of an inhibitor). CLactive, CLpassive, and fu,liv,cell were obtained from the in vitro experimental values obtained in this study, as detailed in the section “Data Analysis and Quantitative Translation”. CLr was fixed to a literature value, as in Table 3. […]

[4] = Top-down PBPK model fitting to DCE-MRI ΔR1 data, gadoxetate administered alone; format: in vivo, rat
Description: DCE–MRI data generated using the 3D Fast Low Angle Shot RF-spoiled gradient echo sequence (FLASH) protocol in male Wistar-Han rats were used for assessing the PBPK IVIVE performances and for obtaining some of the PBPK parameters within the bottom-up and top-down approaches, respectively. The DCE–MRI data were acquired in a multicenter study at two magnetic field strengths, 4.7 and 7 T. Gadoxetate was administered at a dose of 25 μmol/kg, either alone or 1 h after IV administration of 10 mg/kg rifampicin. When gadoxetate was administered alone (control arm), 43 profiles of blood, spleen, and liver measured at a field strength of 4.7 T and 52 profiles of blood, spleen, and liver measured at 7 T were available. In the case of gadoxetate administered with rifampicin, 7 blood, spleen, and liver profiles at a field strength equal to 4.7 T and 6 at 7 T were available. All gadoxetate DCE–MRI data and study protocols are detailed in a companion paper (Hines et al. in submission).
The measured quantity in DCE–MRI is ΔR1 (s^–1), the change of the water proton longitudinal relaxation rate, a magnetic property of the tissues, due to the presence of the contrast agent. In sufficiently homogeneous tissues, the tissue concentration of the contrast agent as a function of time, c(t), can be derived from ΔR1(t). The relationship between c(t) and ΔR1(t) depends on the physical interactions between the contrast agent molecules and the tissue.[39] For a given tissue τ, the relation between ΔR1,τ(t) and cτ(t) is generally considered to be linear, as in eq 4.[39],[40] [drawing 4] 4
as §1
as §2, with “product. […]” for “product.”

[5] = scaled from in vitro, 120 × 10^6 cells/g liver, 40 g liver/kg
[6] = fit to blood, spleen and liver ΔR1, gadoxetate alone, mean (CV %) of 1000 bootstrap samples
[7] = gadoxetate alone, blood data only, value (CV)
[8] = gadoxetate alone, blood, spleen, liver ΔR1, CLr also estimated, value (CV)

CLbiliary, bottom-up scaled value ([3]; Monte Carlo mean, value assumed equal to CLpassive): 0.014 ^a^, ^c L/h | CLactive, bottom-up scaled value ([3]; mean value calculated from the Monte Carlo analysis, rat 0.25 kg): 0.23 ^a L/h | PS, bottom-up scaled value ([3]; permeability surface product, Monte Carlo mean, value assumed equal to CLpassive): 0.014 ^a^, ^c L/h | predicted in vivo active uptake clearance (CLactive,u,in vivo) [3, 5]: 14.7 mL/min/kg body weight | predicted in vivo passive clearance (CLpassive,u,in vivo) [3, 5]: 0.93 mL/min/kg body weight | CLpassive ([3]; scaled from the mean in vitro value in Table 2, fixed in PBPK model): 0.014 L/h | CLactive, top-down estimate ([4]; fit to blood, spleen and liver ΔR1, gadoxetate alone 25 μmol/kg, mean (CV %) of 1000 bootstrap samples): 2.17 (11.5%) ^b L/h | CLbiliary, top-down estimate [4, 6]: 0.07 (3.2%) ^b L/h | PS, top-down estimate [4, 6]: 0.62 (6.3%) ^b L/h | CLactive, estimated only with ΔR1 blood data [4, 7]: 1.88 (23.2 %) L/h and 1.88 L/h | PS, estimated only with ΔR1 blood data [4, 7]: 1.92 (20.8 %) L/h and 1.92 L/h | CLactive, simultaneous estimation with CLr [4, 8]: practically unidentifiable | CLbiliary, simultaneous estimation with CLr [4, 8]: 0.07 (2.6 %) L/h | PS, simultaneous estimation with CLr [4, 8]: 0.58 (8.3 %) L/h | CLactive, simultaneous estimation with CLr ([4]; gadoxetate alone, blood, spleen, liver ΔR1, CLr also estimated, value (CV), listed as Gadoxetate): 3.11 (>1000 %) L/h | CLr, estimated ([4]; gadoxetate alone, blood, spleen, liver ΔR1, value (CV)): 0.40 (24.6 %) L/h
SMILES: CCOc1ccc(C[C@@H](CN(CCN(CC(=O)[O-])CC(=O)[O-])CC(=O)[O-])N(CC(=O)[O-])CC(=O)[O-])cc1.[Gd+3].[H+].[H+] [gadoxetate]
CLr [1]: 0.17 L/h | Ex vivo relaxivity r1, hepatocytes ([2]; 4.7 T): 7.6 s^–1/mM | Ex vivo relaxivity r1, blood ([2]; 4.7 T): 6.4 s^–1/mM | Ex vivo relaxivity r1, hepatocytes ([2]; 7 T): 6 s^–1/mM | Ex vivo relaxivity r1, blood ([2]; 7 T): 6.2 s^–1/mM
